Where two headings read alike, the source gives them in different places.
Assays:
[1] = test system: NCI-H358 cells (K-Ras G12C); assay: CellTiter-Glo cell viability, NCI-H358; type: cell-based, human; conditions: Homo sapiens, NCI-H358, 120 h, read-out: H358 Cell Viability IC50
In short: (§1)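 Compounds dispensed directly onto seeded cells; on day 5 plates equilibrated ~30 min to room temperature and luminescence read. Signal normalized to DMSO average (%) and fitted by four-parameter logistic.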

[2] = test system: Capan-1 cells (K-Ras G12V); assay: CellTiter-Glo cell viability, Capan-1; type: cell-based, human; conditions: Homo sapiens, CAPAN-1, 120 h, read-out: Capan-1 Cell Viability IC50
In short: as §1

KRAS G12C = KRAS G12C (Homo sapiens (Human), UniProt P01116+P62937, G12C); assay: Ras-Raf disruption/FRET/MOA assay (BRAF RBD, Cyclophilin A); type: biochemical; conditions: read-out: KRAS G12C FRET IC50
Sequence of KRAS G12C (P01116-2 other isoform, or with tags, fused parts or gaps G12C): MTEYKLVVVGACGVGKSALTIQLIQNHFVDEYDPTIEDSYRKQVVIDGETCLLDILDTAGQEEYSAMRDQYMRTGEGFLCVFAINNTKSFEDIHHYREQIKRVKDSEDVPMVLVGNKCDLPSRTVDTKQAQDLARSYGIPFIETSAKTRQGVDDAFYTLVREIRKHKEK
Sequence of KRAS G12C (P62937 whole entry): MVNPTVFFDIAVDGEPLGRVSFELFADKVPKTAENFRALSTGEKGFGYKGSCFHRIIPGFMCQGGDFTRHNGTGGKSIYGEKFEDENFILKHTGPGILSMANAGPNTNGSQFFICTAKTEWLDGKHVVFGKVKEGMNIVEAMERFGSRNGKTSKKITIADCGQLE
In short: (§2)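 25 μM tagless Cyclophilin A, 12.5 nM His6-Ras-GMPPNP and 50 nM GST-BRAF RBD in HEPES pH 7.3 buffer with 5 mM MgCl2, with compound (10-point 3-fold series from 30 μM final) for 3 h at 25 °C. Anti-His Eu and anti-GST APC then added for 1.5 h. IC50 from TR-FRET ratio decrease versus DMSO.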

KRAS G12D = KRAS G12D (Homo sapiens (Human), UniProt P01116+P62937, G12D); assay: as above; type: biochemical; conditions: read-out: KRAS G12D FRET IC50
Sequence of KRAS G12D (P01116 other isoform, or with tags, fused parts or gaps G12D): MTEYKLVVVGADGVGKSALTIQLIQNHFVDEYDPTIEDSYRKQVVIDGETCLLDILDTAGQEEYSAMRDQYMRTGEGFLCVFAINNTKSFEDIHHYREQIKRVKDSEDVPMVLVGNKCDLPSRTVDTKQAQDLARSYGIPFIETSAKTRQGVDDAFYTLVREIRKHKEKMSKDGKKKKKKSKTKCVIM
Sequence of KRAS G12D (P62937 whole entry): as the sequence (P62937 whole entry) above
In short: as §2

KRAS G12S = KRAS G12S (Homo sapiens (Human), UniProt P01116+P62937, G12S); assay: as above; type: biochemical; conditions: read-out: KRAS G12S FRET IC50
Sequence of KRAS G12S (P01116 other isoform, or with tags, fused parts or gaps G12S): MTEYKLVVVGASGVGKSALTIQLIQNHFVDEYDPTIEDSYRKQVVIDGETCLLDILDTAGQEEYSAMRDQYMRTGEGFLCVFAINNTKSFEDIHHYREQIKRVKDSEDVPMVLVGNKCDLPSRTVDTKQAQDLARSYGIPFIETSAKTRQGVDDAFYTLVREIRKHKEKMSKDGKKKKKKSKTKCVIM
Sequence of KRAS G12S (P62937 whole entry): as the sequence (P62937 whole entry) above
In short: as §2

KRAS G12V = KRAS G12V (Homo sapiens (Human), UniProt P01116+P62937, G12V); assay: as above; type: biochemical; conditions: read-out: KRAS G12V FRET IC50
Sequence of KRAS G12V (P01116 other isoform, or with tags, fused parts or gaps G12V): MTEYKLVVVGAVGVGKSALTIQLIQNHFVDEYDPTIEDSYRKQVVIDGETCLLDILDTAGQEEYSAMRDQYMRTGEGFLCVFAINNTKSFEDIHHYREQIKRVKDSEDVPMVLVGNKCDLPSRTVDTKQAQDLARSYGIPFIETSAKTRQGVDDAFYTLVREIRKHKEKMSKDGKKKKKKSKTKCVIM
Sequence of KRAS G12V (P62937 whole entry): as the sequence (P62937 whole entry) above
In short: as §2

KRAS G13C = KRAS G13C (Homo sapiens (Human), UniProt P01116+P62937, G13C); assay: as above; type: biochemical; conditions: read-out: KRAS G13C FRET IC50
Sequence of KRAS G13C (P01116 other isoform, or with tags, fused parts or gaps G13C): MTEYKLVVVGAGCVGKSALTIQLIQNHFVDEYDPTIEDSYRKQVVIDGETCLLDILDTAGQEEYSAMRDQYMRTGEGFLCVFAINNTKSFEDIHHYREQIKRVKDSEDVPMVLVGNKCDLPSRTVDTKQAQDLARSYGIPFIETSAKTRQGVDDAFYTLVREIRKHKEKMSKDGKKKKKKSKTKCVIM
Sequence of KRAS G13C (P62937 whole entry): as the sequence (P62937 whole entry) above
In short: as §2

KRAS G13D = KRAS G13D (Homo sapiens (Human), UniProt P01116+P62937, G13D); assay: as above; type: biochemical; conditions: read-out: KRAS G13D FRET data IC50
Sequence of KRAS G13D (P01116 other isoform, or with tags, fused parts or gaps G13D): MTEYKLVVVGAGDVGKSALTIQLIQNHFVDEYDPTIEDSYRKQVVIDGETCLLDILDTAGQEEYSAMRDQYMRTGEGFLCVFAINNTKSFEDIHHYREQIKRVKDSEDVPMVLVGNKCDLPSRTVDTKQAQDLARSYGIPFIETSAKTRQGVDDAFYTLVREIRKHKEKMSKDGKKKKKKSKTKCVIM
Sequence of KRAS G13D (P62937 whole entry): as the sequence (P62937 whole entry) above
In short: as §2

KRAS Q61H = KRAS Q61H (Homo sapiens (Human), UniProt P01116+P62937, Q61H); assay: as above; type: biochemical
Sequence of KRAS Q61H (P01116 other isoform, or with tags, fused parts or gaps Q61H): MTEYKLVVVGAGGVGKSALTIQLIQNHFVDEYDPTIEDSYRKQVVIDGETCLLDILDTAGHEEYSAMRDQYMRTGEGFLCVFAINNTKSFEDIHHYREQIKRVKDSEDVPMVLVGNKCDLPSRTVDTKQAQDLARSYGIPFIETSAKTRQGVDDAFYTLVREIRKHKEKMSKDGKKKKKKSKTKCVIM
Sequence of KRAS Q61H (P62937 whole entry): as the sequence (P62937 whole entry) above
In short: as §2

KRAS WT = KRAS WT (Homo sapiens (Human), UniProt P01116+P62937); assay: as above; type: biochemical; conditions: read-out: KRAS WT FRET data IC50
Sequence of KRAS WT (P01116 other isoform, or with tags, fused parts or gaps): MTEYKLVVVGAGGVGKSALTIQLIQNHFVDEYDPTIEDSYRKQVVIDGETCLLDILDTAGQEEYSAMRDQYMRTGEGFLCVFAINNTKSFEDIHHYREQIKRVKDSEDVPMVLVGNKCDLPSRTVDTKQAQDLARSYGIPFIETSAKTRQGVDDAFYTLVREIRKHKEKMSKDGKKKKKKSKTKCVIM
Sequence of KRAS WT (P62937 whole entry): as the sequence (P62937 whole entry) above
In short: as §2

NRAS G12C = NRAS G12C (Homo sapiens (Human), UniProt P01111+P62937, G12C); assay: as above; type: biochemical; conditions: read-out: NRAS G12C FRET data IC50
Sequence of NRAS G12C (P01111 whole entry G12C): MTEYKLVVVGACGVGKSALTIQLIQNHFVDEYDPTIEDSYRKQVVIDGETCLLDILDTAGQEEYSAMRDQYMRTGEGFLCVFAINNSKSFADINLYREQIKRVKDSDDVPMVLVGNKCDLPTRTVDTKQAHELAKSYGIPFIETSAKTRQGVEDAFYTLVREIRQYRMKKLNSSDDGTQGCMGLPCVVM
Sequence of NRAS G12C (P62937 whole entry): as the sequence (P62937 whole entry) above
In short: as §2

NRAS Q61R = NRAS Q61R (Homo sapiens (Human), UniProt P01111+P62937, Q61R); assay: as above; type: biochemical
Sequence of NRAS Q61R (P01111 whole entry Q61R): as the sequence (P01111 whole entry G12C) above, with C12G, Q61R counted along it
Sequence of NRAS Q61R (P62937 whole entry): as the sequence (P62937 whole entry) above
In short: as §2

NRAS WT = NRAS WT (Homo sapiens (Human), UniProt P01111+P62937); assay: as above; type: biochemical
Sequence of NRAS WT (P01111 whole entry): as the sequence (P01111 whole entry G12C) above, with C12G counted along it
Sequence of NRAS WT (P62937 whole entry): as the sequence (P62937 whole entry) above
In short: as §2

[3] = test system: K-Ras G12C (NCI-H358 cells); assay: Potency assay: pERK in NCI-H358 cells; type: cell-based, human; conditions: Homo sapiens, read-out: pERK EC50 (H358 KRAS G12C)
In short: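 Cells plated the day before were exposed for 4 h at 37° C, 5% CO2 to a 10-point, 3-fold DMSO dilution series (10 mM top stock), in duplicate. Phospho-ERK was read by AlphaLISA SureFire Ultra or by In-Cell Western with DRAQ5 DNA stain, and IC50 came from a 4-parameter sigmoidal fit.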

SMILES | IC50 ([1]; K-Ras G12C, 5-day treatment) [nM] | IC50 ([2]; K-Ras G12V, 5-day treatment) [nM] | IC50 (KRAS G12C) [nM] | IC50 (KRAS G12D) [nM] | IC50 (KRAS G12S) [nM] | IC50 (KRAS G12V) [nM] | IC50 (KRAS G13C) [nM] | IC50 (KRAS G13D) [nM] | IC50 (KRAS Q61H) [nM] | IC50 (KRAS WT) [nM] | IC50 (NRAS G12C) [nM] | IC50 (NRAS Q61R) [nM] | IC50 (NRAS WT) [nM] | EC50 ([3]; NCI-H358 cells, 4 hours) [nM] | IC50 [1] [nM] | IC50 [2] [nM] | EC50 ([3]; NCI-H358, 4 h) [nM]
CCn1c(-c2cccnc2[C@H](C)OC)c2c3cc(ccc31)-c1csc(n1)C[C@H](NC(=O)[C@H](C(C)C)N(C)C(=O)N1CC(S(C)(=O)=O)C1)C(=O)N1CCC[C@H](N1)C(=O)OCC(C)(C)C2 [Compound A383] | 10 to 100 | 10 to 100 | 10 to 100 | 100 to 1000 | 100 to 1000 | 100 to 1000 | 100 to 1000 | 100 to 1000 | 10 to 100 | 100 to 1000 | 10 to 100 | 100 to 1000 | 100 to 1000 | < 5000 |  |  | 
CCn1c(-c2cccnc2[C@H](C)OC)c2c3cc(ccc31)-c1csc(n1)C[C@H](NC(=O)[C@H](C(C)C)N(C)C(=O)N1C[C@@H]3OCCN(C)[C@H]3C1)C(=O)N1CCC[C@H](N1)C(=O)OCC(C)(C)C2 [Compound A445] | 10 to 100 | 10 to 100 | 100 to 1000 | 1000 to 10000 | 100 to 1000 | 100 to 1000 | 100 to 1000 | 100 to 1000 | 100 to 1000 | 100 to 1000 | 100 to 1000 | 100 to 1000 | 100 to 1000 | < 5000 |  |  | 
CCn1c(-c2cccnc2[C@H](C)OC)c2c3cc(ccc31)-c1csc(n1)C[C@H](NC(=O)[C@H](C(C)C)N(C)C(=O)N1CCCC[C@H](N(C)C)C1)C(=O)N1CCC[C@H](N1)C(=O)OCC(C)(C)C2 [Compound A491] | 10 to 100 | 10 to 100 | 10 to 100 | 100 to 1000 | 10 to 100 | 100 to 1000 | 100 to 1000 | 100 to 1000 | 10 to 100 | 10 to 100 | 10 to 100 | 100 to 1000 | 10 to 100 | < 5000 |  |  | 
CCn1c(-c2cccnc2[C@H](C)OC)c2c3cc(ccc31)-c1csc(n1)C[C@H](NC(=O)[C@H](C(C)C)N(C)C(=O)N1CC3(CC(N(C)C4COC4)C3)C1)C(=O)N1CCC[C@H](N1)C(=O)OCC(C)(C)C2 [Compound A511] | 10 to 100 | 10 to 100 | 100 to 1000 | 1000 to 10000 | 100 to 1000 | 100 to 1000 | 100 to 1000 | 1000 to 10000 | 100 to 1000 | 100 to 1000 | 100 to 1000 | 100 to 1000 | 100 to 1000 | < 5000 |  |  | 
CCn1c(-c2cccnc2[C@H](C)OC)c2c3cc(ccc31)-c1csc(n1)C[C@H](NC(=O)[C@H](C(C)C)N(C)C(=O)N1C3COCC1C3)C(=O)N1CCC[C@H](N1)C(=O)OCC(C)(C)C2 [Compound A540] |  |  | 10 to 100 | 1000 to 10000 | 100 to 1000 | 100 to 1000 | 100 to 1000 | 100 to 1000 | 10 to 100 | 100 to 1000 | 10 to 100 | 100 to 1000 | 100 to 1000 |  | 10 to 100 | 10 to 100 | < 5000
CCn1c(-c2cccnc2[C@H](C)OC)c2c3cc(ccc31)-c1csc(n1)C[C@H](NC(=O)[C@H](C(C)C)N(C)C(=O)N1C[C@H](N)[C@@H](O)C1)C(=O)N1CCC[C@H](N1)C(=O)OCC(C)(C)C2 [Compound A581] | 100 to 1000 | 1000 to 10000 | 10 to 100 | 100 to 1000 | 100 to 1000 | 100 to 1000 | 100 to 1000 | 100 to 1000 | 10 to 100 | 100 to 1000 | 10 to 100 | 100 to 1000 | 100 to 1000 | < 5000 |  |  | 
CCn1c(-c2cccnc2[C@H](C)OC)c2c3cc(ccc31)-c1csc(n1)C[C@H](NC(=O)[C@H](C(C)C)N(C)C(=O)N1CCO[C@H](c3ccccc3)C1)C(=O)N1CCC[C@H](N1)C(=O)OCC(C)(C)C2 [Compound A582] | 10 to 100 | 100 to 1000 | 10 to 100 | 100 to 1000 | 100 to 1000 | 100 to 1000 | 100 to 1000 | 100 to 1000 | 10 to 100 | 100 to 1000 | 10 to 100 | 100 to 1000 | 100 to 1000 | < 5000 |  |  | 
CCn1c(-c2cccnc2[C@H](C)OC)c2c3cc(ccc31)-c1csc(n1)C[C@H](NC(=O)[C@H](C(C)C)N(C)C(=O)N1CCO[C@@H](CN(C)C)C1)C(=O)N1CCC[C@H](N1)C(=O)OCC(C)(C)C2 [Compound A591] | 10 to 100 | 10 to 100 | 10 to 100 | 100 to 1000 | 100 to 1000 | 100 to 1000 | 100 to 1000 | 100 to 1000 | 10 to 100 | 100 to 1000 | 10 to 100 | 100 to 1000 | 10 to 100 |  |  |  | 
CCn1c(-c2cccnc2[C@H](C)OC)c2c3cc(ccc31)-c1csc(n1)C[C@H](NC(=O)[C@H](C(C)C)N(C)C(=O)N1CCO[C@@H](c3ccccc3)C1)C(=O)N1CCC[C@H](N1)C(=O)OCC(C)(C)C2 [Compound A600] | 100 to 1000 | 100 to 1000 | 10 to 100 | 100 to 1000 | 100 to 1000 | 100 to 1000 | 100 to 1000 | 100 to 1000 | 10 to 100 | 10 to 100 | 10 to 100 | 100 to 1000 | 10 to 100 | < 5000 |  |  | 

From patent US20250195521A1 (Revolution Medicines, Inc., priority 2020, published 2025)
